Source: patent US20240197650A1, “Combination of Cinnamaldheyde and Eugenol with Antimycotic Activity” (priority 2021, published 2024)

What was measured:
[1] = system: Candida spp.; assay: Disk diffusion method, 18 Candida spp. strains (distribution); type: cell-based; conditions: for inhibition rings diameter, average (including 6.0 mm of the disk) / inhibition rings diameter, range (including 6.0 mm of the disk) / % inhibited strains: 18 strains; for inhibition rings diameter, average (including 6.0 mm of the disk) / inhibition rings diameter, range (including 6.0 mm of the disk): disk 10 μl oil or 10 μg amphotericin B, 35° C. 24 hours; for inhibition of the tested Candida strains (words) / inhibition rings compared with those caused by amphotericin B (10 μg): disks soaked with the oils separately; for % inhibited strains: ring equal or greater than that of amphotericin B
Protocol: (§1) A total of eighteen strains belonging to Candida spp. (15 C. albicans, 2 C. glabrata and 1 C. lusitaniae) derived from a collection of vaginal strains isolated in CHROMAgar Candida (BD Italia SpA, Milan, Italy) were grown on Potato Dextrose Agar (Oxoid Thermofisher SpA, Milan, Italy) at 35° C. for 24 hours.
(§2) Colonies were re-suspended in sterile saline at a density corresponding to #0.5 McFarland (opacity standard). #0.5 McF correspond to 1.4×10^6 colony forming units (CFU)/ml for C. albicans, 4.3×10^6 CFU/ml for C. glabrata and 3×10^6 CFU/ml for C. lusitaniae [Guinea J. et al., Rapid antifungal susceptibility determination for yeast isolates by use of Etest performed directly on blood samples from patients with fungemia, J Clin Microbiol. 2010 June, 48(6): 2205-12]. Then, the sensitivity test vs the two oils has been performed. The disk diffusion method was carried out as follows: for each tested strain, 4 plates of Potato Dextrose Agar (PDA) were seeded in 3 directions to produce a confluent growth, by sterile swab soaked in the cell suspension. Sorbent paper disks (Oxoid Thermofisher SpA, Milan, Italy) 6.0 mm diameter were placed on the agar surface and added with 10 μl of each essential oil. Disks soaked with 10 μg amphotericin B were used as positive control. Also disks of chlortrimazole (from 10 μg to 40 μg) were used, but the inhibition rings could not be clearly read due to the formation of a re-growth ring. Disks soaked with 10 μl pure dimethylsulphoxide (DMSO, Sigma-Aldrich, St. Louis, MO, USA) were used as negative control. The plates were incubated at 35° C. for 24 hours. All the experiments were carried out in duplicate. The inhibiting effect of the oils were considered to be effective when the inhibition ring was equal or greater than that caused by amphotericin B. For amphotericin B, an inhibition zone (IZ)≥15 mm was considered as “sensitivity”, from 10 to 14 mm as “intermediate sensitivity” and <10 mm as “resistance” [Kauser et al., Agreement of Direct Antifungal Susceptibility Testing from Positive Blood Culture Bottles with Conventional Method for Candida Species, J Clin Microbiol. 2016 February, 54(2):343-34].

[2] = system: C. albicans; assay: Disk diffusion method, C. albicans strains; type: cell-based
Protocol: as §1, §2

[3] = system: C. glabrata; assay: Disk diffusion method, C. glabrata strains; type: cell-based
Protocol: as §1, §2

[4] = system: C. glabrata; assay: Microdilution method MIC/MFC, C. glabrata strains; type: cell-based
Protocol: as §1
(§3) The antifungal activity of amphotericin B and of cinnamaldheyde and eugenol were tested with the microdilution method as reported by Bona et al. [Bona et al., Sensitivity of Candida albicans to essential oils: are they an alternative to antifungal agents? J Appl Microbiol. 2016 December, 121(6): 1530-1545] with small changes. All the 18 Candida spp strains were tested. For each isolated, the colonies deriving from cultures (24 hours) in PDA were diluted in saline up to a concentration of 2×10^3 CFU/ml (so obtaining a final concentration of 10 3CGU/ml). Cinnamaldehyde and eugenol were dissolved in DMSO (80% oil, 20% DMSO), then diluted in Sabouraud broth up to a concentration of 8% v/v (so obtaining a final concentration of 4% v/v). Then, in a 96-well microtiter plate ½ serial dilution of amphotericin B (range 32-0.032 μg/ml, for a final range of 16-0.016 μg/ml) and of the essential oils (range 8-0.004% v/v, for a final range of 4-0.002% v/v) were carried out. Each well was then injected with 100 μl of cell suspension. The negative control contained DMSO diluted in Sabouraud broth (at 2% v/v, for a final concentration of 1% v/v). […] Each experiment was carried out in duplicate. The Minimum Inhibitory Concentration (MIC) was determined as the concentration of the oils in the first well which is not cloudy. The Minimum Fungicidal Concentration (MFC) was determined as the lowest concentration of the oils, with the agar culture showing the complete absence of fungal growth. The determination of the amphotericin B MIC was carried out also according to the EUCAST guidelines (cutoff 1 μg/ml) [https://eucast.org/astoffungi/clinicalbreakpointsforantifungals], all the results being consistent.

[5] = system: C. lusitaniae; assay: Microdilution method MIC/MFC, C. lusitaniae strain; type: cell-based; conditions: C. lusitaniae 1
Protocol: as §1, §3

[6] = system: L. acidophilus strain La-14; assay: Microdilution vs L. acidophilus; type: cell-based, Lactobacillus acidophilus; conditions: for MIC vs L. acidophilus: MRS broth, 37° C. 48 hours, anaerobiosis; for MIC vs L. acidophilus relative to the observed maximum MIC vs Candida spp: maximum MIC in 2 strains out of 18 only
Protocol: The antibacterial activity of […] eugenol vs L. acidophilus was studied by using the disk diffusion method (reading scheme as reported in FIG. 1) and the microdilution method (reading scheme as reported in FIG. 2). A L. acidophilus strain named La-14 (Danisco SpA, Milan, Italy) was tested. The essential oils (80% oil, 20% DMSO) were dissolved in MRS broth up to a concentration of 8% v/v (so obtaining a final concentration of 4% v/v). In a 96-well microtiter plate, 1⁄2 serial dilutions of the oils were carried out (volume: 100 μl. […] Each well was then injected with 100 μl of the cell suspension. The microtiter plates were incubated at 37° C. for 48 hours in anaerobiosis. MIC was determined as the concentration of the oils in the first well which is not cloudy. The experiment was carried out in duplicate.

SMILES	inhibition rings diameter, average (including 6.0 mm of the disk) [1]	inhibition rings diameter, range (including 6.0 mm of the disk) [1]	inhibition of the tested Candida strains (words) [1]	inhibition rings compared with those caused by amphotericin B (10 μg) [1]	% inhibited strains [1]	Diameters of the inhibition rings (including 6.0 mm of the disk) ([2]; C. albicans 1)	Diameters of the inhibition rings (including 6.0 mm of the disk) ([2]; C. albicans 2)	Diameters of the inhibition rings (including 6.0 mm of the disk) ([2]; C. albicans 3)	Diameters of the inhibition rings (including 6.0 mm of the disk) ([2]; C. albicans 4)	Diameters of the inhibition rings (including 6.0 mm of the disk) ([2]; C. albicans 5)	Diameters of the inhibition rings (including 6.0 mm of the disk) ([2]; C. albicans 6)	Diameters of the inhibition rings (including 6.0 mm of the disk) ([2]; C. albicans 7)	Diameters of the inhibition rings (including 6.0 mm of the disk) ([2]; C. albicans 8)	Diameters of the inhibition rings (including 6.0 mm of the disk) ([2]; C. albicans 9)	Diameters of the inhibition rings (including 6.0 mm of the disk) ([2]; C. albicans 10)	Diameters of the inhibition rings (including 6.0 mm of the disk) ([2]; C. albicans 11)	Diameters of the inhibition rings (including 6.0 mm of the disk) ([2]; C. albicans 12)	Diameters of the inhibition rings (including 6.0 mm of the disk) ([2]; C. albicans 13)	Diameters of the inhibition rings (including 6.0 mm of the disk) ([2]; C. albicans 14)	Diameters of the inhibition rings (including 6.0 mm of the disk) ([2]; C. albicans 15)	further results
C=CCc1ccc(O)c(OC)c1 [Eugenol, eugenol]	35.2 mm	30.5-41 mm	inhibited the growth of all tested Candida strains	notably greater	100% (18/18)	35.0 mm	35.0 mm	33.0 mm	35.0 mm	35.0 mm	36.0 mm	44.0 mm	41.0 mm	34.0 mm	34.5 mm	34.0 mm	34.0 mm	35.0 mm	34.0 mm	34.0 mm	Diameters of the inhibition rings (including 6.0 mm of the disk) ([3]; C. glabrata 1): 35.0 mm; Diameters of the inhibition rings (including 6.0 mm of the disk) ([3]; C. glabrata 2): 30.5 mm; MFC ([4]; C. glabrata 1): 0.032 % v/v; MIC ([4]; C. glabrata 1): 0.032 % v/v; MFC ([4]; C. glabrata 2): 0.125 % v/v; MIC ([4]; C. glabrata 2): 0.125 % v/v; MFC [5]: 0.064 % v/v; MIC [5]: 0.032 % v/v; MIC vs L. acidophilus relative to the average MIC vs Candida spp [6]: about 6 fold; MIC vs L. acidophilus [6]: 0.25 % v/v; MIC vs L. acidophilus relative to the observed maximum MIC vs Candida spp [6]: double
O=CC=Cc1ccccc1 [Cinnamaldheyde, cinnamaldehyde]	69 mm	55-75 mm	inhibited all tested strains	notably greater	100% (18/18)	65.0 mm	70.0 mm	67.0 mm	66.0 mm	71.0 mm	67.0 mm	75.0 mm	67.0 mm	70.5 mm	72.5 mm	75.0 mm	75.0 mm	71.0 mm	75.0 mm	70.0 mm	inhibition of the tested Candida strains (words) ([1]; listed as cinnamaldheyde): inhibited the growth of all tested Candida strains; Diameters of the inhibition rings (including 6.0 mm of the disk) ([3]; C. glabrata 1): 55.0 mm; Diameters of the inhibition rings (including 6.0 mm of the disk) ([3]; C. glabrata 2): 55.0 mm; MFC ([4]; C. glabrata 1): 0.008 % v/v; MIC ([4]; C. glabrata 1): 0.004 % v/v; MFC ([4]; C. glabrata 2): 0.016 % v/v; MIC ([4]; C. glabrata 2): 0.016 % v/v; MFC [5]: ≤0.002 % v/v; MIC [5]: ≤0.002 % v/v; MIC vs L. acidophilus relative to the average MIC vs Candida spp [6]: about 6.7 fold; MIC vs L. acidophilus [6]: 0.032 % v/v; MIC vs L. acidophilus relative to the observed maximum MIC vs Candida spp [6]: double
